Source: patent US20240368149A1, “ANALOGS OF XANOMELINE” (Terran Biosciences Inc., priority 2023, published 2024)
Read-outs that look alike come from different tables or passages of the source.

Key:
[1] = Rat PK: plasma prodrug concentration after intramuscular (IM) dosing of xanomeline prodrugs at 5 mg/kg (Example A-4); type: in vivo, male Sprague-Dawley (SD) rats; conditions: male, Sprague-Dawley, IM 5 mg/kg of xanomeline; for Cmax / AUC(0-inf) / AUC(0-t): im; for AUC(0-inf): read-out: Prodrug AUCINF_obs; for AUC(0-t): read-out: Prodrug AUClast; for concentration at 0.5 h: 0.500 h
Protocol: (§1) • Step 1: A stock solution of the compound(s) were prepared to 1 mg/ml in DMSO • Step 2: A 10,000 ng/mL matched matrix standard was prepared using the stock solution(s) • Step 3: Calibration standards in matched matrix were prepared between 10,000 ng/ml and 0.5 ng/mL using serial dilution • Step 4: QC samples were prepared in matched matrix at 4000, 800, 400, 40 and 10 ng/mL
(§2) • Step 1: Add 10 μL of the standards, QCs and samples to a 96-well plate (extraction plate) • Step 2: To each standard, QC and test sample, add 100 μL of ISZ • Step 3: Sonicate for 2 min then mix the plate for approximately 2 min at 1200 rpm on a plate shaker • Step 4: Centrifuge the plate at 3000 rpm for 5 min • Step 5: Add 50 μL 0.1% formic acid in UP H2O to wells of a new 96-well plate • Step 6: Transfer 50 μL extracted sample to relevant position in second 96-well plate • Step 7: Mix at 1200 rpm for 2 min • Step 8: Heat seal and analyse on the LC-MS/MS system • Instrument: Xevo TQ-D with CTC Autosampler
(§3) Samples were sent for method optimization and measurement of prodrug via unique calibration lines and following acceptance QC's. Dose formulation concentrations were also measured, and PK parameters were determined (Cmax (ng/mL), Tmax (hr), Cl (ml/min/kg), Vdss (L/kg), t½ (hr), AUC0-t (ng/mL*hr), AUC0-inf (ng/mL*hr), MRT (hr), Bioavailability (% F) where warranted) using WinNon Lin software. Data (including bioanalytical results and assay performance) were reported in a tabulated format and QC'd.
Formulation for IM administration: All compounds were formulated as solutions or fine suspensions in saline at 12.5 mg API/mL. This provided doses of 5 mg/kg (equivalent of xanomeline) when given to a 250 g rat in a 100 μL dosing volume.
The pharmacokinetic properties of the synthesized xanomeline prodrugs after intramuscular administration in a rat model were assessed. The concentration of prodrug was measured in each rat at various sampling timepoints after intramuscular administration of the synthesized xanomeline prodrugs to rats.
Dose formulations were made at equivalent concentrations of active compound (xanomeline) adjusted for molecular weight of the compounds. The synthesized xanomeline prodrugs were dosed at 5 mg/kg intramuscular (IM) nominal dose. Nominal doses were used in PK parameter determinations.

[2] = Rat PK: plasma prodrug concentration after intravenous (IV) dosing of xanomeline prodrugs at 1 mg/kg (Example A-6); type: in vivo, male Sprague-Dawley (SD) rats; conditions: male, Sprague-Dawley, IV 1 mg/kg of xanomeline; for concentration at 0.25 h / concentration at 0.5 h / concentration at 0.75 h / Cmax / AUC(0-inf) / AUC(0-t): iv, 1 mg/kg; for concentration at 0.25 h: 0.250 h; for concentration at 0.25 h / concentration at 0.5 h / concentration at 0.75 h: read-out: Prodrug Plasma Concentrations Following Intravenous Dosing; for concentration at 0.5 h: 0.500 h; for concentration at 0.75 h: 0.750 h; for AUC(0-inf): read-out: Prodrug AUCINF_obs; for AUC(0-t): read-out: Prodrug AUClast
Protocol: as §1, §2, §3
Compound was dissolved in DMSO:HPCD (20% w/v in water) [10:90] 0.5 mg API/mL to provide doses of 1 mg/kg when administered IV in a 2 mL/kg dosing volume.
The pharmacokinetic properties of the synthesized xanomeline prodrugs after intravenous administration in a rat model were assessed. The concentration of prodrug was measured in each rat at various sampling timepoints after intravenous administration of the synthesized xanomeline prodrugs to rats.
Dose formulations were made at equivalent concentrations of active compound (xanomeline) adjusted for molecular weight of the compounds. The synthesized xanomeline prodrugs were dosed at 1 mg/kg intravenous (IV) nominal dose. Nominal doses were used in PK parameter determinations.

[3] = 5 mg/kg, analyte prodrug, individual animals
[4] = intramuscular, 5 mg/kg, Mean, read-out: Prodrug Plasma Concentrations Following Intramuscular Dosing
[5] = intramuscular, 5 mg/kg, individual animals, read-out: Prodrug Plasma Concentrations Following Intramuscular Dosing
[6] = analyte prodrug, individual animals

CCCCCCOc1nsnc1C1=CCC[N+](C)(C(C)OC(=O)C(C)(C)C)C1 (stereo not drawn) [Compound 19]
Tmax ([1]; analyte prodrug, Mean): 30 min
Cmax ([1]; 5 mg/kg, analyte prodrug, Mean): 218 ng/mL
AUC(0-inf) ([1]; 5 mg/kg, analyte prodrug, Mean): 697 ng·h/mL
AUC(0-t) ([1]; 5 mg/kg, analyte prodrug, Mean): 618 ng·h/mL
Cmax [1, 3]: 284 ng/mL
AUC(0-inf) [1, 3]: 891 ng·h/mL
AUC(0-t) [1, 3]: 667 ng·h/mL
concentration at 0.5 h [1, 4]: 218 ng/mL
concentration at 0.5 h [1, 5]: 284 ng/mL
concentration at 1 h [1, 4]: 128 ng/mL
concentration at 1 h [1, 5]: 115 ng/mL
concentration at 2 h [1, 4]: 83 ng/mL
concentration at 2 h [1, 5]: 80.2 ng/mL
concentration at 4 h [1, 4]: 35.9 ng/mL
concentration at 4 h [1, 5]: 38.6 ng/mL
concentration at 8 h ([1]; intramuscular, 5 mg/kg, 8.00 h, Mean, read-out: Prodrug Plasma Concentrations Following Intramuscular Dosing): 13.7 ng/mL
concentration at 24 h ([1]; intramuscular, 5 mg/kg, 24.0 h, Mean, read-out: Prodrug Plasma Concentrations Following Intramuscular Dosing): 1.59 ng/mL
concentration at 31 h [1, 4]: 1.04 ng/mL
concentration at 31 h [1, 5]: 1.01 ng/mL
concentration at 48 h [1, 4]: 0.666 ng/mL
concentration at 48 h [1, 5]: 0.775 ng/mL
concentration at 96 h [1, 4]: 0.255 ng/mL
concentration at 96 h [1, 5]: 0.764 ng/mL
Tmax [2, 6]: 15 min
concentration at 0.25 h ([2]; Mean): 27.2 ng/mL
concentration at 0.25 h ([2]; individual animals): 35.4 ng/mL
concentration at 0.5 h ([2]; Mean): 11.8 ng/mL
concentration at 0.5 h ([2]; individual animals): 15.2 ng/mL
concentration at 0.75 h ([2]; Mean): 7.1 ng/mL
concentration at 0.75 h ([2]; individual animals): 8.62 ng/mL
Cmax ([2]; analyte prodrug, Mean): 27.2 ng/mL
AUC(0-inf) ([2]; analyte prodrug, Mean): 22.9 ng·h/mL
AUC(0-t) ([2]; analyte prodrug, Mean): 17.8 ng·h/mL
Cmax [2, 6]: 35.4 ng/mL
AUC(0-inf) [2, 6]: 27.1 ng·h/mL
AUC(0-t) [2, 6]: 24 ng·h/mL
